This is an account of results in patent US5260060A, “Fibrinolytic enzymes” (priority 1991, dated 1993).

Molecules are shown by their SMILES. pKi: −log10 of the molar value.

Test [1] deals with Accfib (Agkistrodon contortrix contortrix, UniProt P28891). The test is described as follows: biochemical.
The target of test [2] is T1, thermolysin (Bacillus thermoproteolyticus, UniProt P00800).
T1 sequence (P00800 233-548): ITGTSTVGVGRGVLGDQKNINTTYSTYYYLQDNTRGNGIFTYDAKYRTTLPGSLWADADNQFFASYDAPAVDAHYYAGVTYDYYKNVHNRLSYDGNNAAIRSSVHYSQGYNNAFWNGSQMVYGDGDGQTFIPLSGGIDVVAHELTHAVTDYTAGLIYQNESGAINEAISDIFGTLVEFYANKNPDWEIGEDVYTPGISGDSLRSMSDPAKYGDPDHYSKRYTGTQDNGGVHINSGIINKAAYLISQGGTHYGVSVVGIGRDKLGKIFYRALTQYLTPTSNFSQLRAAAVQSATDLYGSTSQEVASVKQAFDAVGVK
As to conditions: cited from earlier work.

Chain of Accfib (P28891 whole entry, looked up): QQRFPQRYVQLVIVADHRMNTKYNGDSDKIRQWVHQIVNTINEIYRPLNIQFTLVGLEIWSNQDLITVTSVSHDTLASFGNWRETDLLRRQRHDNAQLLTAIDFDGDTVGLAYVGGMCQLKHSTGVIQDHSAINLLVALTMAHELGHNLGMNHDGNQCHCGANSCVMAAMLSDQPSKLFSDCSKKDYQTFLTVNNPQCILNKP

As to `CC(C)CC(C(=O)NO)C(=O)N[C@@H](C)C(=O)NCC(N)=O` (stereo partly drawn) [Zincov, 2-(N-hydroxycarboxamido)-4-methylpentanoyl-L-alanyl-glycine amide], the results for the pKi in test [1] and in test [2] were 1.80 and 6.32, respectively.

Usually pKi stands for the negative decadic logarithm of the Ki, by convention in mol/L.
